Data set [1] addresses Delta-type opioid receptor (Homo sapiens) (UniProt P41143). The data set can be described thus: Antagonist activity at human delta-opioid receptor expressed in CHO cell membranes assessed as inhibition of DPDPE-induced [35S]GTPgammaS binding incubated for 60 mins by scintillation counting method. Type of data set: functional.
Data set [2] addresses Mu-type opioid receptor (Homo sapiens) (UniProt P35372). Kind of data set: Agonist activity at human mu-opioid receptor expressed in CHO cell membranes assessed as stimulation of [35S]GTPgammaS binding at 10 uM incubated for 60 mins by scintillation counting method. The format is functional. (In general: GTPγS resists hydrolysis and so accumulates on activated G proteins.)

Data set [3] addresses Delta-type opioid receptor (Homo sapiens) (UniProt P41143). Kind of data set: Agonist activity at human delta-opioid receptor expressed in CHO cell membranes assessed as stimulation of [35S]GTPgammaS binding at 10 uM incubated for 60 mins by scintillation counting method. The format is functional.
The target of data set [4] is Kappa-type opioid receptor (Homo sapiens) (UniProt P41145). Kind of data set: Agonist activity at human kappa-opioid receptor expressed in CHO cell membranes assessed as stimulation of [35S]GTPgammaS binding at 10 uM incubated for 60 mins by scintillation counting method. Type of data set: functional.
Data set [5] in a line: Half life in plasma of Sprague-Dawley CD rat at 5 mg/kg, sc administered as single dose measured over 1 to 168 hrs post dose by LC/MS-MS method. Type of data set: ADME, organism-based.
Data set [6] is described as follows: Clearance in plasma of Sprague-Dawley CD rat at 5 mg/kg, sc administered as single dose measured over 1 to 168 hrs post dose by LC/MS-MS method. The format is ADME, organism-based.
Data set [7] can be described thus: AUClast in plasma of Sprague-Dawley CD rat at 5 mg/kg, sc administered as single dose measured over 1 to 168 hrs post dose by LC/MS-MS method. The format is ADME, organism-based. Further details: dose 5 mg/kg, route subcutaneous, time 0 - last.
Data set [8] is described as follows: Total AUC in plasma of Sprague-Dawley CD rat at 5 mg/kg, sc administered as single dose measured over 1 to 168 hrs post dose by LC/MS-MS method. The format is ADME, organism-based. Further details: dose 5 mg/kg, route subcutaneous, time AUCmax.
Data set [9] in a line: Ratio of AUClast in brain to plasma of Sprague-Dawley CD rat at 5 mg/kg, sc administered as single dose measured over 1 to 168 hrs post dose by LC/MS-MS method. Type of data set: ADME, organism-based.
Data set [10] in a line: Drug level in plasma of Sprague-Dawley CD rat at 5 mg/kg, sc administered as single dose measured after 168 hrs post dose by LC/MS-MS method. The format is ADME, organism-based. To be noted: in vivo.
Data set [11] can be described thus: Drug level in brain of Sprague-Dawley CD rat at 5 mg/kg, sc administered as single dose measured after 168 hrs post dose by LC/MS-MS method. Type of data set: ADME, organism-based. Conditions: in vivo.
Data set [12] can be described thus: Half life in brain of Sprague-Dawley CD rat at 5 mg/kg, sc administered as single dose measured over 1 to 168 hrs post dose by LC/MS-MS method. Type of data set: ADME, organism-based.
Data set [13] is described as follows: AUClast in brain of Sprague-Dawley CD rat at 5 mg/kg, sc administered as single dose measured over 1 to 168 hrs post dose by LC/MS-MS method. To be noted: in vivo. The format is ADME, organism-based.
Data set [14] can be described thus: Total AUC in brain of Sprague-Dawley CD rat at 5 mg/kg, sc administered as single dose measured over 1 to 168 hrs post dose by LC/MS-MS method. The format is ADME, organism-based. Conditions: in vivo. Further details: dose 5 mg/kg, time AUCmax, route subcutaneous.
Data set [15] in a line: in vivo. Conditions: Sprague-Dawley CD, rat, plasma, sc, 5 mg/kg.
A short description of data set [16]: in vivo. Conditions: Sprague-Dawley CD, rat, brain, sc, 5 mg/kg.
The target in data set [17] is Mu-type opioid receptor (Homo sapiens) (UniProt P35372). Kind of data set: Antagonist activity at human mu-opioid receptor expressed in CHO cell membranes assessed as inhibition of DAMGO-induced [35S]GTPgammaS binding incubated for 60 mins by scintillation counting method. Type of data set: functional.
The species entered for data set [18] is Homo sapiens. The data set can be described thus: Selectivity index, ratio of Ke for antagonist activity at human mu-opioid receptor expressed in CHO cell membranes to Ke for antagonist activity at human kappa-opioid receptor expressed in CHO cell membranes. The format is cell-based.
The species entered for data set [19] is Homo sapiens. The data set can be described thus: Selectivity index, ratio of Ke for antagonist activity at human delta-opioid receptor expressed in CHO cell membranes to Ke for antagonist activity at human kappa-opioid receptor expressed in CHO cell membranes. Type of data set: cell-based.
Data set [20] concerns the target Kappa-type opioid receptor (Homo sapiens) (UniProt P41145). The data set can be described thus: Antagonist activity at human kappa-opioid receptor expressed in CHO cell membranes assessed as inhibition of U69593-induced [35S]GTPgammaS binding incubated for 60 mins by scintillation counting method. Type of data set: functional.

Activity calls are given as the source filed them. The rule behind the calls is not given here.

As a reminder, the half-life is the time in which the quantity being followed falls by half. Low values mean rapid decline, high ones slow decline. The CL/F is the apparent clearance, not corrected for the fraction that reaches the circulation. The AUC(0-t) is exposure summed from dosing to a finite time, without extrapolation to infinity. What is called Tmax is the time at which the peak concentration occurs.

Chain of Delta-type opioid receptor (Homo sapiens) (P41143 whole entry): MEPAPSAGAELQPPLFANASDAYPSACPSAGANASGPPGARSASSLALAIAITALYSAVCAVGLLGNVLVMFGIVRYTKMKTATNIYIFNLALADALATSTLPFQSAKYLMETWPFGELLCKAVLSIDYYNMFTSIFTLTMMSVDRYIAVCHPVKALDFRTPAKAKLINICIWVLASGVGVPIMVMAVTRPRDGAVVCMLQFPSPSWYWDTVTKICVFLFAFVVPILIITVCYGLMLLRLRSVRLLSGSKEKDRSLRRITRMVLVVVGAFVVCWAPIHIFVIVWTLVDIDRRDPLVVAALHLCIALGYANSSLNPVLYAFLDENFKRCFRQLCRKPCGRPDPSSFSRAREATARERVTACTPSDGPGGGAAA
Chain of Mu-type opioid receptor (Homo sapiens) (P35372 whole entry): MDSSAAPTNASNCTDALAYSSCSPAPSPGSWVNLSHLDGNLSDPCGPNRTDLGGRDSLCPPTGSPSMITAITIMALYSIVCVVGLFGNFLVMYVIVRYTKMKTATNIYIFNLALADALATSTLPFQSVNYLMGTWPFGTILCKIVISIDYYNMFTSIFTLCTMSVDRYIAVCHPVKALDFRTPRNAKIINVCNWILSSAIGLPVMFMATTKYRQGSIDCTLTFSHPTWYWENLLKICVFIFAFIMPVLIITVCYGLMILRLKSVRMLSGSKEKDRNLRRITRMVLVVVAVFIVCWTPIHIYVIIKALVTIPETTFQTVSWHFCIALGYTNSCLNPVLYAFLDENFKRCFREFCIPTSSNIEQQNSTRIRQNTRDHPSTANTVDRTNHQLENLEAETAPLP
Chain of Kappa-type opioid receptor (Homo sapiens) (P41145 whole entry): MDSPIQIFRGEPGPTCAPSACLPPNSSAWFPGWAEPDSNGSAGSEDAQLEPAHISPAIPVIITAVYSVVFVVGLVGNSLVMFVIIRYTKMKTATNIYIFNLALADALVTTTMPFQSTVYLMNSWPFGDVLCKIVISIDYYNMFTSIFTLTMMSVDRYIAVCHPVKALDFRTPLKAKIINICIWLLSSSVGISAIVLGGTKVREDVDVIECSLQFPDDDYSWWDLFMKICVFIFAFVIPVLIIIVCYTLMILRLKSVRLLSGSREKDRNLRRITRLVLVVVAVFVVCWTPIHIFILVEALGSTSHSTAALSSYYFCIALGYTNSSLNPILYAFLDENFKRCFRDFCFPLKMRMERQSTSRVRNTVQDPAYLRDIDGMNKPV

For the compound `CC1CCN(C[C@@H](NC(=O)[C@H]2Cc3ccc(O)cc3CN2)C(C)C)CC1`, in [1], the Ke is over 3000 nM. Further, the result in [2], in data set [3] and in data set [4] was inactive. Moreover, the figures for the half-life in [5] and in data set [12] were 30.7 h and 57.2 h, respectively. Further, in data set [6], the apparent clearance CL/F was 43.8 mL/min/kg. In data set [7], this compound yielded an AUC(0-t) of 1860 ng·h/mL. Further, the figures for the AUC in data set [8] and in data set [14] were 1900 ng·h/mL and 21400 ng·h/g, respectively. The BPR in data set [9] (brain) worked out at 10.07. For the same compound, the Drug uptake result in data set [10] and in data set [11] was “Active” throughout. Further, the AUClast in [13] came out at 18765 ng·h/g. Further, the values for the Tmax in “in vivo [15]” and in “in vivo [16]” were 1 h and 4 h, respectively.
In the case of `CC(C)[C@@H](CN1CCC(C)(C)CC1)NC(=O)[C@H]1Cc2ccc(O)cc2CN1`, the values for the Ke in [17] and in data set [1] were 142 nM and 847 nM, respectively. Moreover, the figures for the Ratio Ke in the data set filed under Homo sapiens [18] and in the data set filed under Homo sapiens [19] were 40 and over 237, respectively. Moreover, the result in data set [2], in data set [3] and in data set [4] was inactive.
For the compound `CC(C)[C@@H](CN1CC[C@@](C)(c2cccc(O)c2)[C@@H](C)C1)NC(=O)[C@H]1Cc2ccc(O)cc2CN1` [JDTIC], the Kp in data set [9] (Sprague-Dawley CD, brain and plasma, read-out: BPR) is 7.
As for `CCC1CCN(C[C@@H](NC(=O)[C@H]2Cc3ccc(O)cc3CN2)C(C)C)CC1`, the Ke in data set [17] was found to be 74.8 nM; in data set [1], 2490 nM; in data set [20] it was 2.48 nM. For the same compound, the Ratio Ke in the data set filed under Homo sapiens [18] was 30; in the data set listed under Homo sapiens [19], 1000. In addition, the outcome in data set [2], in data set [3] and in data set [4] was inactive.

(Values after ChEMBL document CHEMBL4145694 (J Med Chem, 2018).)
